These results are taken from patent US9481648B2, “Kinase inhibitors” (Respivert Limited, priority 2013, dated 2016).

One experiment addresses Syk (Homo sapiens (Human), UniProt P43405). In words: Syk enzyme inhibition (FRET, Z-LYTE). The class given is biochemical. In short, it runs like this:
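Syk or c-Src enzyme (3000 or 2000 ng/mL solutions) was preincubated 2 h at RT with compound solutions at 1, 0.1, 0.01 or 0.001 µg/mL. Z-LYTE FRET peptide (8 µM solution) and ATP (800 µM solution for c-Src, 60 µM for Syk) were then added for 1 h, followed by protease development for 1 h. Phosphorylation was read as the coumarin/fluorescein emission ratio.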

The target of the next experiment is GSK 3α (Homo sapiens (Human), UniProt P49840). Put plainly: GSK 3α enzyme inhibition (FRET, Z-LYTE; Method 2). Type of experiment: biochemical. To be noted: read-out: IC50 Values for Enzyme Inhibition GSK3α. In short, it runs like this: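 Phosphorylation was taken from the donor (coumarin) to acceptor (fluorescein) emission ratio after 1 h protease development, which cleaves only unphosphorylated peptide. Before that, peptide (8 μM stock) plus ATP (40 μM stock) reacted 1 h. This followed a 105 min RT preincubation of GSK3-α with compound stocks of 10–0.01 μg/mL.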
GSK 3α, sequence (P49840 whole entry): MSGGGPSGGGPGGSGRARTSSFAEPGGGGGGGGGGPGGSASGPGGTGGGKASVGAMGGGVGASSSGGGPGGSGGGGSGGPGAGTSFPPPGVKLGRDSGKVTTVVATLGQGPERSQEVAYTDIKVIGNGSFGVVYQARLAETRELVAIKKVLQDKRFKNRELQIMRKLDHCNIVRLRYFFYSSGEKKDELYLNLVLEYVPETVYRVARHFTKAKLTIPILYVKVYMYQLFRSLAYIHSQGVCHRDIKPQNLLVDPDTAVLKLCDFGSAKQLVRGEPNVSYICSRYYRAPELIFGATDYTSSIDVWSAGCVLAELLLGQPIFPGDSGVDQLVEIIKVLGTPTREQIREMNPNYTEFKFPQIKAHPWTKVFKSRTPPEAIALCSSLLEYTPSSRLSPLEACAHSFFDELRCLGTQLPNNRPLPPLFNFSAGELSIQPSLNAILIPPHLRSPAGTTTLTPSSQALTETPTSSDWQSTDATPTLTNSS

The test system of experiment [1] is β-catenin in d-U937 cells. Put plainly: Accumulation of β catenin in d-U937 cells (assay m). Type of experiment: cell-based, human. In short, it runs like this: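 U937 cells were differentiated with PMA (100 ng/mL) for 48–72 hr, then treated with compound or vehicle for 18 hr. After formaldehyde fixation, β-catenin was detected with a primary antibody and an HRP secondary using TMB (OD450–655). Signal was normalised to crystal violet cell staining (OD595).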

A further experiment deals with c-Src (Homo sapiens (Human), UniProt P12931). In words: c-Src enzyme inhibition (FRET, Z-LYTE). Type of experiment: biochemical. As for the experimental part: (§1) The enzyme inhibitory activities of compounds disclosed herein are determined by FRET using synthetic peptides labelled with both donor and acceptor fluorophores (Z-LYTE, Invitrogen Ltd., Paisley, UK).
c-Src, sequence (P12931 whole entry, looked up): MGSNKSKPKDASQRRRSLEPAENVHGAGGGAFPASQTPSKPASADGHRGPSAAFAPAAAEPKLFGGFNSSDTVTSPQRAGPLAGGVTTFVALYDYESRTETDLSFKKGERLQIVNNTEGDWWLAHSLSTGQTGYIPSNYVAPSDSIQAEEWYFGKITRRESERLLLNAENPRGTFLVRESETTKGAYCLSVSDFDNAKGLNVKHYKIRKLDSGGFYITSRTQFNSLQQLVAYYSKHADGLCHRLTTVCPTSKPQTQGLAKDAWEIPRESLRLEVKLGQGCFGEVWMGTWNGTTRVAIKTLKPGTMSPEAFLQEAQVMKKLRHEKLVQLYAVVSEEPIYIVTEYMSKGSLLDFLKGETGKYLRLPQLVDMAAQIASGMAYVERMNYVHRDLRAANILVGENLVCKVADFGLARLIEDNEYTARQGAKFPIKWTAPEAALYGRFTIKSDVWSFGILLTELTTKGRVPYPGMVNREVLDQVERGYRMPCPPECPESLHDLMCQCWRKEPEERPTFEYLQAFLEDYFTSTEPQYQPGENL
The relevant enzyme (3000 ng/mL or 2000 ng/mL respectively, 2.5 μL) is incubated with the test compound (either 1 μg/mL, 0.1 μg/mL, 0.01 μg/mL, or 0.001 μg/mL, 2.5 μL each) for 2 hr at RT. The FRET peptides (8 μM, 2.5 μL), and appropriate ATP solutions (2.5 μL, 800 μM for c-Src, and 60 μM ATP for Syk) are then added to the enzymes/compound mixtures and the mixture incubated for 1 hr. Development reagent (protease, 5 μL) is added for 1 hr prior to detection in a fluorescence microplate reader (Varioskan® Flash, ThermoFisher Scientific).
(§2) In all cases, the site-specific protease cleaves non-phosphorylated peptide only and eliminates the FRET signal. Phosphorylation levels of each reaction are calculated using the ratio of coumarin emission (donor) over fluorescein emission (acceptor), for which high ratios indicate high phosphorylation and low ratios indicate low phosphorylation levels.

A further experiment has as its target p38 MAPKα (MAPK14) (Homo sapiens (Human), UniProt Q16539). Put plainly: p38 MAPKα enzyme inhibition (FRET, Z-LYTE; Method 2). Type of experiment: biochemical. As for the experimental part: as §1
The inhibitory activities of test compounds against the p38 MAPKα isoform (MAPK14: Invitrogen) are evaluated indirectly by determining the level of activation\phosphorylation of the down-stream molecule, MAPKAP-K2. The p38 MAPKα protein (80 ng/mL, 2.5 μL) is mixed with the test compound (2.5 μL of either 4 μg/mL, 0.4 μg/mL, 0.04 μg/mL or 0.004 μg/mL) for 2 hr at RT. […] The mixture is incubated for 1 hr at RT. Development reagent (protease, 5 μL) is added for 1 hr prior to detection in a fluorescence microplate reader (Vanoskan® Flash, ThermoFisher Scientific).
as §2

p38 MAPKα (MAPK14), sequence (Q16539 whole entry, canonical isoform): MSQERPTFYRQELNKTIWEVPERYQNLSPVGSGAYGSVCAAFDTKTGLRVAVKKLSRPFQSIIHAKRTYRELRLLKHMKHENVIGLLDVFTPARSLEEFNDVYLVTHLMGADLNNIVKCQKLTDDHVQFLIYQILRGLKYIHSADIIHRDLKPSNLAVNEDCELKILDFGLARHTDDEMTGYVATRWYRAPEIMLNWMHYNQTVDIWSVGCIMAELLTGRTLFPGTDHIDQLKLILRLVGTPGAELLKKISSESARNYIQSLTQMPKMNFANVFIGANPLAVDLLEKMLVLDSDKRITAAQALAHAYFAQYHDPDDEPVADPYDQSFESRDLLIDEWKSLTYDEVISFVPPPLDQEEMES

A word on the IC50: it is the concentration that inhibits the measured activity by half. Regarding `COCCOCCOCCOCCOCCOCCOCCOc1cc(Nc2nccc(Oc3ccc(NC(=O)Nc4cc(C(C)(C)C)cc(NS(C)(=O)=O)c4OC)c4ccccc34)n2)cc(OC)c1` [Example 14, N-(3-(3-(4-((2-((3-(2,5,8,11,14,17,20-Heotaoxadocosan-22-yloxy)-5-methoxyphenyl)amino)-pyrimidin-4-yl)oxy)naphthalen-1-yl)ureido)-5-(tert-butyl)-2-methoxyphenyl)-methanesulfonamide], the IC50 against Syk was determined as 106 nM; at GSK 3α, 1010 nM; against c-Src, 11 nM; at p38 MAPKα (MAPK14), 49 nM. Besides, the figures for the “% β-catenin induction” value in experiment [1] (test compound 1 μg/mL), in experiment [1] (test compound 5 μg/mL) and in experiment [1] (test compound 10 μg/mL) were 0%, 16% and 14%, respectively.
As for `COCCOCCOCCOc1cc(Nc2nccc(Oc3ccc(NC(=O)Nc4cc(C(C)(C)C)cc(NS(C)(=O)=O)c4OC)c4ccccc34)n2)cc(OC(F)F)c1` [Example 17, N-(5-(tert-Butyl)-3-(3-(4-((2-((3-(difluoromethoxy)-5-(2-(2-(2-methoxyethoxy)ethoxy)-ethoxy)phenyl)amino)pyrimidin-4-yl)oxy)naphthalen-1-yl)ureido)-2-methoxyphenyl)-methanesulfonamide], the IC50 against Syk worked out at 149 nM; on GSK 3α, 5460 nM; against c-Src it was 40 nM; against p38 MAPKα (MAPK14) it was 179 nM. For the same compound, the “% β-catenin induction” value in experiment [1] (test compound 1 μg/mL) is 5%; in experiment [1] (test compound 5 μg/mL), 23%; in experiment [1] (test compound 10 μg/mL) it was 23%.
Consider `COc1cc(Nc2nccc(Oc3ccc(NC(=O)Nc4cc(C(C)(C)C)cc(NS(C)(=O)=O)c4OC)c4ccccc34)n2)cc(OCCOCCOCCN2CCOCC2)c1` [Example 18, N-(5-(tert-Butyl)-2-methoxy-3-(3-(4-((2-((3-methoxy-5-(2-(2-(2-mormholinoethoxy)ethoxy)-ethoxy)phenyl)amino)pyrimidin-4-yl)oxy)naphthalen-1-yl)ureido)phenyl)methanesulfonamide], for which the IC50 worked out at 76 nM at Syk, 3120 nM at GSK 3α, 10 nM at c-Src and 52 nM against p38 MAPKα (MAPK14). Moreover, the “% β-catenin induction” value in experiment [1] (test compound 1 μg/mL) worked out at 1%; in experiment [1] (test compound 5 μg/mL) it was 9%; in experiment [1] (test compound 10 μg/mL), 17%.
Regarding `COCCOCCOCCOc1cc(Nc2nccc(Oc3ccc(NC(=O)Nc4cc(C(C)(C)C)cc(C(N)=O)c4OC)c4ccccc34)n2)cc(OC)c1` [Example 20, 5-(tert-Butyl)-2-methoxy-3-(3-(4-((2-((3-methoxy-5-(2-(2-(2-methoxyethoxy)ethoxy)-ethoxy)phenyl)amino)pyrimidin-4-yl)oxy)naphthalen-1-yl)ureido)benzamide], the IC50 against Syk came to 29 nM; at GSK 3α, 748 nM; against c-Src, 6 nM; against p38 MAPKα (MAPK14) it was 33 nM. In addition, the “% β-catenin induction” value was 4% in experiment [1] (test compound 1 μg/mL), 31% in experiment [1] (test compound 5 μg/mL) and 29% in experiment [1] (test compound 10 μg/mL).
As to `COCCOCCOCCOc1cc(Nc2nccc(Oc3ccc(NC(=O)Nc4cc(NS(C)(=O)=O)cc(C(C)(C)C)c4)c4ccccc34)n2)cc(OC)c1` [Example 24, N-(3-(tert-Butyl)-5-(3-(4-((2-((3-methoxy-5-(2-(2-(2-methoxyethoxy)ethoxy)ethoxy)-phenyl)amino)pyrimidin-4-yl)oxy)naphthalen-1-yl)ureido)phenyl)methanesulfonamide], the IC50 on Syk was found to be 549 nM; at GSK 3α, 680 nM; against c-Src it was 14 nM; on p38 MAPKα (MAPK14), 30 nM. Also, the “% β-catenin induction” value in experiment [1] (test compound 1 μg/mL) is given as −3%; in experiment [1] (test compound 5 μg/mL), 27%; in experiment [1] (test compound 10 μg/mL) it was 25%.
As for `COCCOCCOc1cc(Nc2nccc(Oc3ccc(NC(=O)Nc4cc(C(C)(C)C)cc(NS(C)(=O)=O)c4OC)c4ccccc34)n2)cc(OC)c1` [Example 36, N-(5-(tert-Butyl)-2-methoxy-3-(3-(4-((2-((3-methoxy-5-(2-(2-methoxyethoxy)ethoxy)-phenyl)amino)pyrimidin-4-yl)oxy)naphthalen-1-yl)ureido)phenyl)methanesulfonamide], the IC50 worked out at 67 nM against Syk, 2090 nM at GSK 3α, 16 nM at c-Src and 69 nM on p38 MAPKα (MAPK14). Further, the “% β-catenin induction” value was −4% in experiment [1] (test compound 1 μg/mL), 28% in experiment [1] (test compound 5 μg/mL) and 18% in experiment [1] (test compound 10 μg/mL).
As to `C#Cc1cc(Nc2cc(Oc3ccc(NC(=O)Nc4cc(C(C)(C)C)cc(C(=O)NC)c4OC)c4ccccc34)ccn2)cc(C(=O)NCCN2CCOCC2)c1` [Example 39, 5-(tert-Butyl)-3-(3-(4-((2-((3-ethynyl-5-((2-morpholinoethyl)carbamoyl)phenyl)amino)-pyridin-4-yl)oxy)naphthalen-1-yl)ureido)-2-methoxy-N-methylbenzamide], the IC50 amounted to 571 nM at Syk, 1600 nM at GSK 3α, 29 nM against c-Src and 140 nM against p38 MAPKα (MAPK14). For the same compound, the “% β-catenin induction” value was −11% in experiment [1] (test compound 1 μg/mL), −12% in experiment [1] (test compound 5 μg/mL) and −18% in experiment [1] (test compound 10 μg/mL).
As to `COCCOCCOCCOCCOCCOCCOCCOc1cc(Nc2cc(Oc3ccc(NC(=O)Nc4cc(C(C)(C)C)cc(NS(C)(=O)=O)c4OC)c4ccccc34)ccn2)cc(OC)c1` [Example 45, N-(3-(3-(4-((2-((3-(2,5,8,11,14,17,20-Heptaoxadocosan-22-yloxy)-5-methoxyphenyl)-amino)pyridin-4-yl)oxy)naphthalen-1-yl)ureido)-5-(tert-butyl)-2-methoxyphenyl)methanesulfonamide], the IC50 against Syk was 455 nM; at GSK 3α it was 2160 nM; on c-Src, 39 nM; against p38 MAPKα (MAPK14), 145 nM. Also, the “% β-catenin induction” value is given as −4% in experiment [1] (test compound 1 μg/mL), −7% in experiment [1] (test compound 5 μg/mL) and −14% in experiment [1] (test compound 10 μg/mL).
As for `COCCOCCOCCOc1cc(Nc2nccc(Oc3ccc(NC(=O)Nc4cc(C(C)(C)C)cc(C(=O)NCCN(C)C)c4OC)c4ccccc34)n2)cc(OC)c1` [Example 46, 5-(tert-Butyl)-N-(2-(dimethylamino)ethyl)-2-methoxy-3-(3-(4-((2-((3-methoxy-5-(2-(2-(2-methoxyethoxy)ethoxy)ethoxyl)phenyl)amino)pyrimidin-4-yl)oxy)naphthalen-1-yl)ureido)-benzamide], the IC50 against Syk worked out at 20 nM; on GSK 3α, 636 nM; at c-Src, 15 nM; against p38 MAPKα (MAPK14) it was 110 nM. Besides, the “% β-catenin induction” value in experiment [1] (test compound 1 μg/mL) is listed as −2%; in experiment [1] (test compound 5 μg/mL) it was 2%; in experiment [1] (test compound 10 μg/mL), −29%.
Regarding `COc1cc(Nc2cc(Oc3ccc(NC(=O)Nc4cc(C(C)(C)C)cc(C(N)=O)c4OC)c4ccccc34)ccn2)cc(C(=O)NCCN2CCOCC2)c1` [Example 47, 3-((4-((4-(3-(5-(tert-Butyl)-3-carbamoyl-2-methoxyphenyl)ureido)naphthalen-1-yl)oxy)pyridin-2-yl)amino)-5-methoxy-N-(2-morpholinoethyl)benzamide], the IC50 worked out at 169 nM against Syk, 1600 nM on GSK 3α, 15 nM at c-Src and 92 nM against p38 MAPKα (MAPK14). Further, the “% β-catenin induction” value is −5% in experiment [1] (test compound 1 μg/mL), 4% in experiment [1] (test compound 5 μg/mL) and 8% in experiment [1] (test compound 10 μg/mL).
Take `C#Cc1cc(Nc2cc(Oc3ccc(NC(=O)Nc4cc(C(C)(C)C)cc(C(N)=O)c4OC)c4ccccc34)ccn2)cc(C(=O)NCCN2CCOCC2)c1` [Example 48, 3-((4-((4-(3-(5-(tert-Butyl)-3-carbamoyl-2-methoxyphenyl)ureido)naphthalen-1-yl)oxy)pyridin-2-yl)amino)-5-ethynyl-N-(2-morpholinoethyl)benzamide]: the IC50 came out at 490 nM on Syk, 5030 nM on GSK 3α, 45 nM against c-Src and 229 nM at p38 MAPKα (MAPK14). Besides, the “% β-catenin induction” value in experiment [1] (test compound 1 μg/mL) was −2%; in experiment [1] (test compound 5 μg/mL), −4%; in experiment [1] (test compound 10 μg/mL), −3%.
